Laboratory results as given in patent US20250066816A1, “ELECTROPORATION ENHANCERS FOR CRISPR-CAS SYSTEMS” (SIGMA-ALDRICH CO. LLC, priority 2021, published 2025).

Test system: human HEK293 cells
Assay: High fidelity SpCas9 RNP nucleofection, HEKSite4 target site, HEK293 cells, editing frequency by NGS
Format: cell-based
Settings: at least one of the three dosages tested (Table 10), FIG. 6
Procedure: A high fidelity SpCas9 protein (Catalog No. CAS9 Plus) and a synthetic single guide RNA (sgRNA) with the spacer sequence of 5′-[…]-3′ (SEQ ID NO: 46) targeting the human HEKSite4 locus were purchased from MilliporeSigma. Pentosan polysulfate sodium salt with a formula of (C5H6Na2O10S2)n was purchased from Selleckchem (Catalog No. S3500). A pentosan polysulfate solution was prepared by dissolving the chemical in water at 50 mg/ml. The molecular structural unit of the polyanionic polymer is as follows: […]
Genomic DNA extracts from transfected cells were prepared using QuickExtract Solution. Targeted genomic region was PCR amplified with NGS primers using JumpStart™ Taq ReadyMix™ for Quantitative PCR Kit (MilliporeSigma) with the following cycling condition: 98° C./2 m; 98° C./15 s, 62° C./30 s, and 72° C./45 s for 34 cycles; 72° C./5 m.
Primary PCR products were then reamplified with Illumina index primers using JumpStart™ Taq ReadyMix™ for Quantitative PCR Kit (MilliporeSigma) with the following cycling condition: 95° C./3 m; 95° C./30 s, 55° C./30 s, and 72° C./30 s for 8 cycles; 72° C./5 m. Indexed PCR products were purified with Select-a-Size DNA Clean & Concentrator kit (Zymo) and quantified by PicoGreen (ThermoFisher). […] The FASTQ files for each sample were analyzed for genome editing frequency. […]

Collagen from rat tail
level of editing efficiency versus the control buffer: significantly higher
